Assay results published in patent US20230257354A1, “NOVEL HETEROCYCLIC COMPOUNDS” (Hoffmann-La Roche Inc., priority 2020, published 2023).

Test system: Acinetobacter baumannii ATCC17978
Test: Antimicrobial susceptibility testing, 90% growth inhibitory concentration (IC90) determination, ATCC17978
Assay type: cell-based
Settings: Iso-Sensitest broth, OD 600 nm over 16 h, 35±2° C., read-out: ATCC 17978 IC90
Description: Antimicrobial Susceptibility Testing: 90% Growth Inhibitory Concentration (IC90) Determination The in vitro antimicrobial activity of the compounds was determined according to the following procedure: The assay used a 10-points Iso-Sensitest broth medium to measure quantitatively the in vitro activity of the compounds against Acinetobacter baumannii ATCC17978 or ATCC17961. Stock compounds in DMSO were serially twofold diluted (e.g. range from 50 to 0.097 μM final concentration) in 384 wells microtiter plates and inoculated with 49 μl the bacterial suspension in Iso-Sensitest medium to have a final cell concentration of ˜5×10^(5) CFU/ml in a final volume/well of 50 ul/well. Microtiter plates were incubated at 35±2° C. Bacterial cell growth was determined with the measurement of optical density at X=600 nm each 20 minutes over a time course of 16 h. Growth inhibition was calculated during the logarithmic growth of the bacterial cells with determination of the concentration inhibiting 50% (IC50) and 90% (IC90) of the growth. Table 1 provides the 90% growth inhibitory concentrations (IC90) in micromoles per liter of the compounds of present invention obtained against the strain Acinetobacter baumannii ATCC17978.

Structure (SMILES) | IC90
Cn1c(-c2ccc(OCC#N)c(F)c2F)cnc1C(=O)Nc1ccc(C(=O)NCCNC(=O)C2(O)CCNCC2)c(Cl)c1 [Example B16, N-[2-[[2-chloro-4-[[5-[4-(cyanomethoxy)-2,3-difluoro-phenyl]-1-methyl-imidazole-2-carbonyl]amino]benzoyl]amino]ethyl]-4-hydroxy-piperidine-4-carboxamide;2,2,2-trifluoroacetic acid] | 350 nM
COc1ccc(-c2cnc(C(=O)Nc3ccc(C(=O)NC4CN(C(=O)CN)C4)c(Cl)c3)n2C)c(F)c1F [Example B17, N-[4-[[1-(2-aminoacetyl)azetidin-3-yl]carbamoyl]-3-chloro-phenyl]-5-(2,3-difluoro-4-methoxy-phenyl)-1-methyl-imidazole-2-carboxamide;formic acid] | 84 nM
COc1ccc(-c2cnc(C(=O)Nc3ccc(C(=O)NCC4CN(C(=O)CN)C4)c(Cl)c3)n2C)c(F)c1F [Example B18, N-[4-[[1-(2-aminoacetyl)azetidin-3-yl]methylcarbamoyl]-3-chloro-phenyl]-5-(2,3-difluoro-4-methoxy-phenyl)-1-methyl-imidazole-2-carboxamide;formic acid] | 240 nM
COc1ccc(-c2cnc(C(=O)Nc3ccc(C(=O)N[C@H]4C[C@@H](C(=O)NCCN)C4)c(Cl)c3)n2C)c(F)c1F [Example B19, N-[4-[[3-(2-aminoethylcarbamoyl)cyclobutyl]carbamoyl]-3-chloro-phenyl]-5-(2,3-difluoro-4-methoxy-phenyl)-1-methyl-imidazole-2-carboxamide;formic acid] | 160 nM
COc1ccc(-c2cnc(C(=O)Nc3ccc(C(=O)N[C@H]4C[C@@H](C(=O)N5CC(N)C5)C4)c(Cl)c3)n2C)c(F)c1F [Example B20, N-[4-[[3-(3-aminoazetidine-1-carbonyl)cyclobutyl]carbamoyl]-3-chloro-phenyl]-5-(2,3-difluoro-4-methoxy-phenyl)-1-methyl-imidazole-2-carboxamide;formic acid] | 210 nM
COc1ccc(-c2cnc(C(=O)Nc3ccc(C(=O)N[C@H]4C[C@@H](C(=O)N[C@H]5C[C@@H](N)C5)C4)c(Cl)c3)n2C)c(F)c1F [Example B21, N-[4-[[3-[(3-aminocyclobutyl)carbamoyl]cyclobutyl]carbamoyl]-3-chloro-phenyl]-5-(2,3-difluoro-4-methoxy-phenyl)-1-methyl-imidazole-2-carboxamide;2,2,2-trifluoroacetic acid] | 98 nM
CCc1cc(NC(=O)c2ncc(-c3ccc(OC)c(F)c3F)n2C)ccc1C(=O)N[C@H]1C[C@@H](C(=O)NCCN)C1 [Example B22, N-[4-[[3-(2-aminoethylcarbamoyl)cyclobutyl]carbamoyl]-3-ethyl-phenyl]-5-(2,3-difluoro-4-methoxy-phenyl)-1-methyl-imidazole-2-carboxamide;2,2,2-trifluoroacetic acid] | 320 nM
CCc1cc(NC(=O)c2ncc(-c3ccc(OC)c(F)c3F)n2C)ccc1C(=O)NC1CN(C(=O)CN)C1 [Example B23, N-[4-[[1-(2-aminoacetyl)azetidin-3-yl]carbamoyl]-3-ethyl-phenyl]-5-(2,3-difluoro-4-methoxy-phenyl)-1-methyl-imidazole-2-carboxamide;formic acid] | 300 nM
Cc1cc(NC(=O)c2ncc(-c3ccc(OCC#N)c(F)c3F)n2C)ccc1C(=O)NCCNC(=O)[C@H]1C[C@@](C)(O)CN1 [Example B24, 5-[4-(cyanomethoxy)-2,3-difluoro-phenyl]-N-[4-[2-[[(2R,4R)-4-hydroxy-4-methyl-pyrrolidine-2-carbonyl]amino]ethylcarbamoyl]-3-methyl-phenyl]-1-methyl-imidazole-2-carboxamide;formic acid] | 1000 nM
CC[C@]1(O)CN[C@@H](C(=O)NCCNC(=O)c2ccc(NC(=O)c3ncc(-c4ccc(OCC#N)c(F)c4F)n3C)cc2C)C1 [Example B25, 5-[4-(cyanomethoxy)-2,3-difluoro-phenyl]-N-[4-[2-[[(2R,4R)-4-ethyl-4-hydroxy-pyrrolidine-2-carbonyl]amino]ethylcarbamoyl]-3-methyl-phenyl]-1-methyl-imidazole-2-carboxamide;formic acid] | 870 nM
